In patent US20210315887A1, “METHODS OF ADMINISTERING THERAPY” (GALAPAGOS NV, priority 2018, published 2021):
“Also recorded” adds a separate entry of the source. Like-named read-outs stand apart in the source and are kept apart here.

Experiment: Phase I open-label drug-drug interaction study: single-dose plasma pharmacokinetics of compound 1 before and after repeat doses of rifampicin
Type: in vivo, human
Conditions: for Mean maximal compound 1 plasma concentration: from mean concentration-time profile; for Cmax / AUC(0-t): po, 600 mg; for Cmax: healthy male subjects; for concentration at 24 h: read-out: C24h
Procedure: A phase I, open-label, non-randomized, drug-drug interaction study in healthy male subjects is done to evaluate the impact of repeat doses of rifampicin, on the single-dose pharmacokinetics (PK) of compound 1 as well as to evaluate the safety and tolerability of a single dose of compound 1 administered before or after oral doses of rifampicin.
Eighteen healthy male subjects received a single oral dose of 600 mg compound 1 on Day 1. From Days 2 to 11, 600 mg rifampicin was administered once daily (q.d.) to all subjects for 10 consecutive days. On Day 12, subjects received a single oral dose of 600 mg of compound 1 (see Table 1). A follow-up visit is conducted between days 15 and 18.
On days 1, 2, 12, 13 (i.e. 1, 2, 3, 4, 5, 6, 7, 8, 12 and 24 hours post compound 1 administration on day 1 and day 12) and at the follow-up visit, blood samples for PK assessment of compound 1 are taken. Blood samples of 2 mL for the determination of compound 1 levels in plasma are collected by venipuncture (or indwelling catheter) in the arm, into vacuum tubes containing lithium heparin and are immediately chilled (ice bath).
Within 30 min after blood collection, the plasma is separated by centrifugation at 4° C. for 10 min at circa 1,500 g and transferred into 2 polypropylene tubes with at least 400 μL of plasma in the first aliquot and the remaining volume in the second aliquot. After appropriate labeling, the plasma samples are stored in the clinical center at −20° C.±10° C. within 2 h following centrifugation and are protected from direct sunlight.
Plasma concentrations were measured using validated liquid chromatography with tandem mass (LC/MS-MS) spectrometry methods with a limit of quantification of 1.00 ng/mL for compound 1, 20.0 mg/mL for cholesterol and 5.00 ng/mL for 4-β-hydroxycholesterol. Non-compartmental PK calculations are performed using Phoenix WinNonlin® (version 6.4).
The following parameters are determined for compound 1 from individual concentration-time profiles in plasma: • Cmax: maximum observed plasma concentration • tmax: time of occurrence of Cmax • AUC0-t: area under the plasma concentration-time curve from time zero till the time corresponding with the last observed quantifiable concentration, calculated by the linear up-logarithmic down trapezoidal rule • AUC0-24h: area under the plasma concentration-time curve from time zero till 24 h post-dose, calculated by the linear up-logarithmic down trapezoidal rule • C24h: plasma concentration observed at 24 h post-dose
Plasma concentrations and PK parameters of compound 1 are listed by day (Day 1: compound 1 before multiple rifampin doses; Day 12: compound 1 after multiple rifampin doses) for each subject. Descriptive statistics are calculated by day for the plasma concentration and PK parameters. Mean (±SE) concentration-time profiles are generated by day.
A mixed-effects model with day as fixed effect and subject as random effect is performed on the following natural log (ln)-transformed PK parameters of compound 1: Cmax, C24h, AUC0-t, and AUC0-24h. […] The 90% confidence interval (CI) of the point estimate is calculated using the mean square error of the analysis of variance.
As tmax is a discrete variable dependent on selected blood sampling times, day effect was assessed using a non-parametric test (Wilcoxon's signed-rank test).

[1] = point estimate of least-squares geometric means ratio, Day 12 relative to Day 1
[2] = rifampin 600 mg q.d. for 10 days, Day 12 vs Day 1

For CCc1nc2c(C)cc(N3CCN(CC(=O)N4CC(O)C4)CC3)cn2c1N(C)c1nc(-c2ccc(F)cc2)c(C#N)s1 [Compound 1], the “Time post-dose at which mean maximal concentration is attained” value (Day 1, single 600 mg oral dose) was 2 h, the “Mean maximal compound 1 plasma concentration” value (Day 1, single 600 mg oral dose) was 7,870 ng/mL and the “Time post-dose at which mean maximal concentration is attained” value (Day 12, after multiple rifampin doses) was 2 h. The “Mean maximal compound 1 plasma concentration” value (Day 12, single 600 mg oral dose after rifampin 600 mg q.d. 10 days) was 1,180 ng/mL, the “Impact of multiple rifampin intake on compound 1 clearance” value (Day 12 compared with Day 1) was “no impact” and the “Impact of multiple rifampin intake on apparent rate of elimination of compound 1” value (Day 12 compared with Day 1, visual inspection of profiles) was “no impact”. For the same molecule, the “Decrease of AUC0-24h by multiple rifampin intake” value (Day 12 vs Day 1) was 89.2%, the “Decrease of Cmax by multiple rifampin intake” value (Day 12 vs Day 1) was 83.2% and the “Bioavailability of compound 1 after multiple rifampin intake” value (as shown by point estimates, Day 12 vs Day 1) was “markedly lower”. For the same molecule, the “Elimination of compound 1 (shape of log-linear mean concentration-time profile)” value (before and after multiple rifampin intake) was “biphasic”, the Cmax (male, human, plasma, single oral 600 mg compound 1, after multiple rifampin doses 600 mg q.d. 10 days (Day 12), N = 18, arithmetic mean) was 1440 ng/mL and the Cmax (male, human, plasma, single oral 600 mg compound 1, before multiple rifampin doses (Day 1), N = 18, arithmetic mean) was 8660 ng/mL. The AUC(0-t) (male, human, plasma, single oral 600 mg, after multiple rifampin doses (Day 12), N = 17, arithmetic mean, read-out: AUC0-24h) was 3750 ng·h/mL, the AUC(0-t) (male, human, plasma, single oral 600 mg, after multiple rifampin doses (Day 12), N = 18, arithmetic mean, read-out: AUC0-t) was 3570 ng·h/mL and the AUC(0-t) (male, human, plasma, single oral 600 mg, before multiple rifampin doses (Day 1), N = 18, arithmetic mean, read-out: AUC0-24h) was 36300 ng·h/mL. For the same molecule, the AUC(0-t) (male, human, plasma, single oral 600 mg, before multiple rifampin doses (Day 1), N = 18, arithmetic mean, read-out: AUC0-t) was 36300 ng·h/mL, the concentration at 24 h (male, human, plasma, single oral 600 mg, after multiple rifampin doses (Day 12), N = 18, arithmetic mean) was 1.69 ng/mL and the concentration at 24 h (male, human, plasma, single oral 600 mg, before multiple rifampin doses (Day 1), N = 18, arithmetic mean) was 83.4 ng/mL. The Tmax (male, human, plasma, single oral 600 mg, before multiple rifampin doses (Day 1), N = 18, median) was 2 h, the “AUC0-24h Comparison (PE %)” value [1] was 10.75% and the “AUC0-t Comparison (PE %)” value [1] was 10.24%. For the same molecule, the “C24h Comparison (PE %)” value [1] was 2.48%, the “Cmax Comparison (PE %)” value [1] was 16.78% and the “Decrease of AUC0-24h by multiple rifampin intake” value [2] was 9.3 fold. The “Decrease of Cmax by multiple rifampin intake” value [2] was 6.0 fold and the “Day effect (rifampin) on tmax” value (statistical analysis Day 12 vs Day 1) was “no significant effect; also recorded: no significant impact”.
